# Results reported in ChEMBL document CHEMBL1145498, “A systematic interaction map of validated kinase inhibitors with Ser/Thr kinases” (Proc Natl Acad Sci U S A, 2007).
# Calls of active or inactive are those of the source. The rule behind the calls is not given here.
# What was measured:
# [1] = target: Eukaryotic elongation factor 2 kinase (Homo sapiens, UniProt O00418); assay: Inhibition of eEF2 kinase
# [2] = species: Mus musculus; assay: Inhibition of LPS-stimulated TNFalpha release in mouse; assay type: functional
# [3] = system: PBMC; assay: Inhibition of LPS-stimulated TNFalpha release in human PBMC; assay type: functional, cell-based
# [4] = target: Dual specificity tyrosine-phosphorylation-regulated kinase 1A (Homo sapiens, UniProt Q13627); assay: Inhibition of DYRK1a
# [5] = target: Rho-associated protein kinase 2 (Homo sapiens, UniProt O75116); assay: Inhibition of ROCK2
# [6] = target: Tyrosine-protein kinase Lck (Homo sapiens, UniProt P06239); assay: Inhibition of p56lck autophosphorylation
# [7] = system: NT2; assay: Cell cycle arrest in human NT2 cells assessed as accumulation at G2 phase; assay type: functional, cell-based
# [8] = target: T1, Epidermal growth factor receptor (Homo sapiens, UniProt P00533); conditions: 10000 nM
# [9] = target: Receptor-type tyrosine-protein kinase FLT3 (Homo sapiens, UniProt P36888); assay: Inhibition of wild type FLT3
# [10] = target: Vascular endothelial growth factor receptor 2 (Homo sapiens, UniProt P35968); assay: Inhibition of KDR
# [11] = target: RAC-alpha serine/threonine-protein kinase (Homo sapiens, UniProt P31749); assay: Inhibition of AKT
# [12] = target: Aurora kinase B (Homo sapiens, UniProt Q96GD4); assay: Inhibition of Aurora kinase B in MCF7 cells; assay type: cell-based
# [13] = system: P19; assay: Induction of differentiation in mouse P19 cells at 1000 nM; assay type: functional
# [14] = Induction of differentiation in mouse D3 cells at 400 nM; assay type: functional
# [15] = system: KM12; assay: Inhibition of human KM12 cells; assay type: functional
# [16] = system: Mus musculus; assay: Effect on phorbol ester-induced ear edema in ip dosed mouse; assay type: functional
# [17] = system: RAW264.7; assay: Inhibition of LPS induced iNOS induced expression in mouse Raw264.7cells; assay type: functional, cell-based
# [18] = target: Platelet-derived growth factor receptor alpha (Homo sapiens, UniProt P16234); assay: Inhibition of PDGFRalpha
# [19] = target: Nitric oxide synthase, inducible (Homo sapiens, UniProt P35228); assay: Inhibition of nitric oxide synthase in […]; assay type: cell-based
# [20] = Agonist activity at yeast aryl hydrocarbon receptor; assay type: functional, Saccharomyces cerevisiae
# [21] = target: Inhibitor of nuclear factor kappa-B kinase subunit beta (Homo sapiens, UniProt O14920); assay: Inhibition of IKK-beta
# [22] = target: Transcription factor Jun (Homo sapiens, UniProt P05412); assay: Inhibition of AP1 activity
# [23] = target: T2, Insulin-like growth factor 1 receptor (Homo sapiens, UniProt P08069); assay: Inhibition of IGF1R
# [24] = target: Epidermal growth factor receptor (Homo sapiens, UniProt P00533, L858R); assay: Inhibition of EGFR L858R mutant; assay type: protein assay
# [25] = target: Receptor tyrosine-protein kinase erbB-4 (Homo sapiens, UniProt Q15303); assay: Inhibition of erbB4/Her4
# [26] = target: T3, Serine/threonine-protein kinase Chk1 (Homo sapiens, UniProt O14757); assay: Inhibition of Chk1 mediated phosphorylation of cdc25C
# T3 sequence (O14757 whole entry): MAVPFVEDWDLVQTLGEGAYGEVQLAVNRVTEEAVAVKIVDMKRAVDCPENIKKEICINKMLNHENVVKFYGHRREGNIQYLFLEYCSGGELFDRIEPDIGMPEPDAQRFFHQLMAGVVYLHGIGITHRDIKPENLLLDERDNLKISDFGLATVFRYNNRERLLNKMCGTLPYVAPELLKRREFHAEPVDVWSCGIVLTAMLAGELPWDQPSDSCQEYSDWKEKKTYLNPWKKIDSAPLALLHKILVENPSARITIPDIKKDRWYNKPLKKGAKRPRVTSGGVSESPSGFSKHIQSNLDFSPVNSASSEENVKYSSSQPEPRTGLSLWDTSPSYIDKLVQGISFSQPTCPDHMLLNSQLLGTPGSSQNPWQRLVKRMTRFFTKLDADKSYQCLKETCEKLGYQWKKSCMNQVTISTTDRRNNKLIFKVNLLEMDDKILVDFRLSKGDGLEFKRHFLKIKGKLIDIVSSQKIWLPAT
# [27] = target: Mitogen-activated protein kinase 14 (Homo sapiens, UniProt Q16539); assay: Inhibition of SAPK2a/p38-alpha
# [28] = target: T2, Insulin-like growth factor 1 receptor; assay: Inhibition of IGF1R autophosphorylation in human MCF7 cells; assay type: cell-based
# [29] = system: MV4-11; assay: Antiproliferative activity against human MV4-11 cells; assay type: functional
# [30] = target: Tyrosine-protein kinase ITK/TSK (Homo sapiens, UniProt Q08881); assay: Inhibition of Itk
# [31] = target: Vascular endothelial growth factor receptor 3 (Homo sapiens, UniProt P35916); assay: Inhibition of VEGFR3
# [32] = target: Platelet-derived growth factor receptor beta (Homo sapiens, UniProt P09619)
# [33] = target: Dual specificity mitogen-activated protein kinase kinase 1 (Homo sapiens, UniProt Q02750)
# [34] = target: Hepatocyte growth factor receptor (Homo sapiens, UniProt P08581); assay: Inhibition of Met kinase
# [35] = target: Tyrosine-protein kinase Lyn (Homo sapiens, UniProt P07948); assay: Inhibition of Lyn kinase
# [36] = target: Proto-oncogene tyrosine-protein kinase Src (Homo sapiens, UniProt P12931); assay: Inhibition of c-Src
# [37] = system: T-cell; assay: Effect of gamma irradiation-induced apoptosis in human CD8+ T cells; assay type: functional, cell-based; conditions: light or radiation study
# [38] = target: T1, Epidermal growth factor receptor; assay: Inhibition of EGF
# [39] = target: Platelet-derived growth factor receptor (Homo sapiens, UniProt P09619+P16234); assay: Inhibition of PDGF; assay type: protein-complex assay
# [40] = target: Protein kinase C zeta type (Homo sapiens, UniProt Q05513); assay: Inhibition of PKCzeta
# [41] = system: MV4-11; assay: Induction of apoptosis in human MV4-11 cells; assay type: functional, cell-based
# [42] = species: Homo sapiens; assay: Reduction of growth in human acute leukemic blasts; assay type: functional
# [43] = cells; conditions: Homo sapiens, JeKo-1, 72 h
# [44] = Inhibition of VEGFR
# [45] = Inhibition of Cdc25 phosphatase activity
# [46] = system: HUVEC; assay: Inhibition of serum-induced proliferation in HUVEC; assay type: functional, cell-based; conditions: Homo sapiens
# [47] = Inhibition of serum-induced proliferation in human NHLF cells; assay type: functional, cell-based
# [48] = target: Membrane-associated tyrosine- and threonine-specific cdc2-inhibitory kinase (Homo sapiens, UniProt Q99640); assay: Inhibition of Myt1
# [49] = target: Protein kinase C (PKC); assay: Inhibition of rat brain PKC
# [50] = Inhibition of phosphorylase kinase
# [51] = target: Mitogen-activated protein kinase 1 (Homo sapiens, UniProt P28482); assay: Binding affinity to ERK2
# [52] = Antiproliferative activity against human SUM-159 cells; assay type: functional, cell-based; conditions: SUM-159-PT
# T2 sequence (P08069 31-736 limits assumed): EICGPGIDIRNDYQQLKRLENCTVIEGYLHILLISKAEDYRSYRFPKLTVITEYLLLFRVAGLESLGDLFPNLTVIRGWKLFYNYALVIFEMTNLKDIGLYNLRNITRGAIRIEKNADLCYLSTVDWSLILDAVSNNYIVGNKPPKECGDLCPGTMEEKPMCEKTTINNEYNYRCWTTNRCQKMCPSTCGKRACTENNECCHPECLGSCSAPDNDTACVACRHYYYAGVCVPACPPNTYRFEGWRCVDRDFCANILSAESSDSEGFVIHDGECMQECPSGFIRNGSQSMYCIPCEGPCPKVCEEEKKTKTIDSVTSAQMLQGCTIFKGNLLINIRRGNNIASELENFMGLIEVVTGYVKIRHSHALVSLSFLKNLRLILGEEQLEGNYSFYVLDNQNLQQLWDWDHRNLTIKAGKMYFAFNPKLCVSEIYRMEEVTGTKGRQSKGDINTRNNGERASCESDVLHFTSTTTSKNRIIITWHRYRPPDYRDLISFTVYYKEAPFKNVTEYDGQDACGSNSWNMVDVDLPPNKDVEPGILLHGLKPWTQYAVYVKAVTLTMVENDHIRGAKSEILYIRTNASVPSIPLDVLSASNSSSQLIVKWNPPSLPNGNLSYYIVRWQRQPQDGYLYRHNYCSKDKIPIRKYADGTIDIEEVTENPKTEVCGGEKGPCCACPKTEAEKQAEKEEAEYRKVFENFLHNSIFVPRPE
# T2 sequence (P08069 741-1367 limits assumed): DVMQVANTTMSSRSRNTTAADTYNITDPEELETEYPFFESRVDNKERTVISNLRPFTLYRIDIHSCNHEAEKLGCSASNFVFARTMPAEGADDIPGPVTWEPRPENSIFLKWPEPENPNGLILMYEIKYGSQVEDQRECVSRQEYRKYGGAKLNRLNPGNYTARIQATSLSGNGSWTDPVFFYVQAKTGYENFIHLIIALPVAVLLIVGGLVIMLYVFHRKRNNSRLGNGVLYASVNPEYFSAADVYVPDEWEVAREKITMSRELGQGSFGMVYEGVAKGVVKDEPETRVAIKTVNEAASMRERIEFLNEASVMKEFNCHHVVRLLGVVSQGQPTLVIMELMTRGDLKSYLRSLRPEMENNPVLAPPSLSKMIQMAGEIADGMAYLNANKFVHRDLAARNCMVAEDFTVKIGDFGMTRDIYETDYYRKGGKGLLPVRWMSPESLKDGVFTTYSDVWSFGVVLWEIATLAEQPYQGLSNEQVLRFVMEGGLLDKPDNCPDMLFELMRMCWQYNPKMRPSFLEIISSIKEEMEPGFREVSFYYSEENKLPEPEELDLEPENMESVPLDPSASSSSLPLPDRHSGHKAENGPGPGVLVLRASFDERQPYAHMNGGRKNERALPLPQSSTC
# T1 sequence (P00533 whole entry): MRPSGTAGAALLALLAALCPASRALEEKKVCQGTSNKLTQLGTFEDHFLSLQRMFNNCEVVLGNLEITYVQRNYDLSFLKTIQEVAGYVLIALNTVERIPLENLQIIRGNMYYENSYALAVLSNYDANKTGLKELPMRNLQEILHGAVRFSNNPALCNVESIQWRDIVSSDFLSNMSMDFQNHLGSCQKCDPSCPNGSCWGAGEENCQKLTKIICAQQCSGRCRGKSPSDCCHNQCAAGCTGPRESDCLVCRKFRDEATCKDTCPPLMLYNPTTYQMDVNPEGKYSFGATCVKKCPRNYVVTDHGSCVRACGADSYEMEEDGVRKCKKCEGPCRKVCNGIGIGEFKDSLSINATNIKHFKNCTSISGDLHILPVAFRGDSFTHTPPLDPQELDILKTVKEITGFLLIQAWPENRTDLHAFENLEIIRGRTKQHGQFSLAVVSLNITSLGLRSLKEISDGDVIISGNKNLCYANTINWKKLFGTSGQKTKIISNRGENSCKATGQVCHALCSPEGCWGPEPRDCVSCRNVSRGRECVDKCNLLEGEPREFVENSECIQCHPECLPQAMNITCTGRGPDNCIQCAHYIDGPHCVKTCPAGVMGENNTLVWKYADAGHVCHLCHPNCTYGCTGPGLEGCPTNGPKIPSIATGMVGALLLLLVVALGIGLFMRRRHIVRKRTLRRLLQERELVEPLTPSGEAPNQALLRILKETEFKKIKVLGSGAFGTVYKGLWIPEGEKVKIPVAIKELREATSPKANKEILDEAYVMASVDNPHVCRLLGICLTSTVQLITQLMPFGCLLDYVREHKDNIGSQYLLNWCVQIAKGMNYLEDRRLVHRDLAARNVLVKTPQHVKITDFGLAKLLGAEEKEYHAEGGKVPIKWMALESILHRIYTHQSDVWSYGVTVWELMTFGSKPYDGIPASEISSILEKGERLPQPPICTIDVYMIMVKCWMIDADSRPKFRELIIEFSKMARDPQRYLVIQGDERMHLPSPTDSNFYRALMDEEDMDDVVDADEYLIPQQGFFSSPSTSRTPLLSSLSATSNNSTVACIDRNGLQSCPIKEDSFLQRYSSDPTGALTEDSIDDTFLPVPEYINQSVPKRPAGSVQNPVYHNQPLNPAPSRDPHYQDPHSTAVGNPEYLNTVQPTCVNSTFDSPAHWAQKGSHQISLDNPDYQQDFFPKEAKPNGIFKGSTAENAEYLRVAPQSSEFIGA
# Vascular endothelial growth factor receptor 2, sequence (P35968 whole entry): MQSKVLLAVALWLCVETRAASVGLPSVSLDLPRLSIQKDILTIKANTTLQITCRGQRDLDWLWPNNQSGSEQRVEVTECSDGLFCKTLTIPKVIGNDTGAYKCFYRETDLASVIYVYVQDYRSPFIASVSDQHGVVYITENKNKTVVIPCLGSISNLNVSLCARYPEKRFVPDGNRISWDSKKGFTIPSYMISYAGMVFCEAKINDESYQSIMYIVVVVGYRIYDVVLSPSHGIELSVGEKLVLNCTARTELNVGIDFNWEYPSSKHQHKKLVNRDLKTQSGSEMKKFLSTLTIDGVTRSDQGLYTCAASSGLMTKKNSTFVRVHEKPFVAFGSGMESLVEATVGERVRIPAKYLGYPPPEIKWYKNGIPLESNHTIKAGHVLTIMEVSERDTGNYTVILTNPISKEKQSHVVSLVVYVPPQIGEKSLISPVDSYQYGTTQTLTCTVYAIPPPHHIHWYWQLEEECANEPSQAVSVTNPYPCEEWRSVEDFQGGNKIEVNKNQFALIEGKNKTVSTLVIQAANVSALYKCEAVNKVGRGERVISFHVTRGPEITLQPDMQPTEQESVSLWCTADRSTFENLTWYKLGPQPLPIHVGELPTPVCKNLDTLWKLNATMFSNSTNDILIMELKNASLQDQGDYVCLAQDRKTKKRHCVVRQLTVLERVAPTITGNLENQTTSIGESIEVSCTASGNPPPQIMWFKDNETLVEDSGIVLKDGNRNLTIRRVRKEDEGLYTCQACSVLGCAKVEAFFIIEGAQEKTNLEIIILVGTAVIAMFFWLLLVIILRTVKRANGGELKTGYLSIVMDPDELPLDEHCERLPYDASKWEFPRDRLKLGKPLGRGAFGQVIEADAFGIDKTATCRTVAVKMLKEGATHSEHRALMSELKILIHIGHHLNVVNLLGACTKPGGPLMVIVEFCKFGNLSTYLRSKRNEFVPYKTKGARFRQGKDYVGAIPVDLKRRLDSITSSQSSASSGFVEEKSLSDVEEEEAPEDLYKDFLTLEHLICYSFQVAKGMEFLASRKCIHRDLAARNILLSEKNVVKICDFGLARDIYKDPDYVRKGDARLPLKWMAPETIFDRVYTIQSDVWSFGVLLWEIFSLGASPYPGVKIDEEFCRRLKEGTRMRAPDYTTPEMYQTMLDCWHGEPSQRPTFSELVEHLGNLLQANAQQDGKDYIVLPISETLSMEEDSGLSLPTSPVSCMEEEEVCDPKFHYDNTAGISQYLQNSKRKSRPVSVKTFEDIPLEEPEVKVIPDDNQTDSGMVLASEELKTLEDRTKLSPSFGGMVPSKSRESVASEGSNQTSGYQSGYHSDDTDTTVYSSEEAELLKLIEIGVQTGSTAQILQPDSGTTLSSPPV
# Platelet-derived growth factor receptor alpha, sequence (P16234 whole entry): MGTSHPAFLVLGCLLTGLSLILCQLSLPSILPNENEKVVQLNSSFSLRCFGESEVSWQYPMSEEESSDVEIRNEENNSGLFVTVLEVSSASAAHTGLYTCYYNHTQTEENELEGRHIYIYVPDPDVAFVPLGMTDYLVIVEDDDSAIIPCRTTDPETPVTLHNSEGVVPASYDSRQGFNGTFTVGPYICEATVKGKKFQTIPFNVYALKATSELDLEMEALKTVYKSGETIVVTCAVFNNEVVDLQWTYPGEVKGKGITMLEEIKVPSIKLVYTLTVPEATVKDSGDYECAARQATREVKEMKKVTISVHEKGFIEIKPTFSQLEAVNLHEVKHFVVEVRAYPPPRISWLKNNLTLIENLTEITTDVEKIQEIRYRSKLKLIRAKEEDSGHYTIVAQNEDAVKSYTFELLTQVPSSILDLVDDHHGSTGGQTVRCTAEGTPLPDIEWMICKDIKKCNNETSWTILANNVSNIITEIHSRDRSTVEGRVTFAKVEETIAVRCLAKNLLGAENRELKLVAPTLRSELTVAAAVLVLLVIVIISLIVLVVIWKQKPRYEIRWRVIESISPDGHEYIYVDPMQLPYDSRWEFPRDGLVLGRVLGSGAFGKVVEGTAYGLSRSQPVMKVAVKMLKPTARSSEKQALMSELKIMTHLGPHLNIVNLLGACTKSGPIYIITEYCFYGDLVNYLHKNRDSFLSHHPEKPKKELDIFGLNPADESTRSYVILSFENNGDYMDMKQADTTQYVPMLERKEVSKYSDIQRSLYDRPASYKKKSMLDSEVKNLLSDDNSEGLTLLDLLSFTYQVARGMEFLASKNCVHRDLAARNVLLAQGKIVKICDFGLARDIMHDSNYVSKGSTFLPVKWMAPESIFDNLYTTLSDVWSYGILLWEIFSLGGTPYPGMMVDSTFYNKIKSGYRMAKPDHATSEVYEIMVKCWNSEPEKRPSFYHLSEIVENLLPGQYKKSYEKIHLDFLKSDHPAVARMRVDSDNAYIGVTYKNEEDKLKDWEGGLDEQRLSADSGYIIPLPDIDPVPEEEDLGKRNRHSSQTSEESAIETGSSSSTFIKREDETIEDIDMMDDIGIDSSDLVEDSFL
compound,measurement,setting,value
Cc1cc(C=C2C(=O)C=CC2=O)cc(C)c1O,IC50,[1],440 nM
CSc1nc(-c2ccc(F)cc2)c(-c2ccnc(NC(C)c3ccccc3)c2)[nH]1 (racemic),ED50,[2],1.33 mg/kg
same,IC50,[3],160 nM
NS(=O)(=O)c1ccc(Nc2nc(OCC3CCCCC3)c3nc[nH]c3n2)cc1,IC50,[4],900 nM
same,IC50,[5],600 nM
Cc1c2ccncc2c(C)c2c1[nH]c1ccccc12 [ELLIPTECINE],IC50,[6],18.5 µM
CCCCc1c(-c2ccc(O)cc2)[nH]c2nccnc12 [ALOISINE A],IC50,[7],10.5 µM
O=C1Nc2ccccc2/C1=C/c1cnc[nH]1,inhibition,[8],54%
c1ccc(-c2n[nH]c3c2oc2ccccc23)cc1,IC50,[9],300 nM
same,IC50,[10],≥ 10 µM
same,IC50,[11],≥ 10 µM
COc1cc2ncnc(Nc3ccc(NC(=O)c4ccccc4)cc3)c2cc1OC [ANILINOQUINAZOLINE1],IC50,[12],1250 nM
Nc1cccc(-c2cc3c(Oc4cccc(O)c4)ncnc3[nH]2)c1,Activity,[13],30%
same,Activity,[14],50%
CC(C)[C@H](CO)Nc1nc(Nc2cc(N)cc(Cl)c2)c2ncn(C(C)C)c2n1 [AMINOPURVALANOL],GI50,[15],30 nM
C=CNC#N,ED50,[16],5 mg/kg
COc1cc(C[C@H]2C(=O)OC[C@@H]2Cc2ccc(OC)c(OC)c2)ccc1O [ARCTIGENIN],IC50,[17],10 nM
CCCNC(=O)Nc1ccc(Oc2ncnc3cc(OC)c(OC)cc23)cc1Cl [KRN-633],IC50,[18],970 nM
COc1cc(/C=C/C(=O)CC(=O)/C=C/c2ccc(O)c(OC)c2)ccc1O [CURCUMIN],IC50,[19],6 µM
CC(=O)O/N=C1/C(=C2/C(=O)Nc3cc(Br)ccc32)Nc2ccccc21 [6-BROMOINDIRUBIN-3'-ACETOXIME],EC50,[20],≥ 100 nM
COc1cc(O)c2c(c1)oc(=O)c1c3cc(O)c(O)cc3oc21 [WEDELOLACTONE],IC50,[21],> 10 µM
N#C/C(=C(/N)Sc1ccc(N)cc1)c1ccccc1C(F)(F)F,IC50,[22],2030 nM
O=C(Nc1cccc(Nc2nccc(Nc3cccc(C(F)(F)F)c3)n2)c1)C1CC1 [ANILINOPYRIMIDINE1],IC50,[23],591 nM
O=C(Nc1cccc(Nc2cc(Nc3cccc(C(F)(F)F)c3)ncn2)c1)C1CC1,IC50,[24],63 nM
same,IC50,[25],7.64 µM
O=C1NC(=O)c2c1c1c3ccccc3n3c1c1c2c2ccccc2n1C1CCC3O1,IC50,[26],15 nM
Cc1ccc(NC(=O)c2cccc(N(C)C)c2)cc1NC(=O)c1ccc(O)cc1,IC50,[27],2000 nM
COc1ccc(Cl)cc1NC(=O)Nc1cc(C)nc2ccccc12,IC50,[28],12 µM
same,Activity,[29],15 µM
NCCNc1ncc(C(N)=O)c(Nc2cccc(C(F)(F)F)c2)n1,IC50,[30],22.6 µM
N#CCCc1ccc2c(c1)-c1[nH]c3ccc([N+](=O)[O-])cc3c1CC(=O)N2 [ALSTERPAULLONE 2],IC50,[31],1000 nM
same,IC50,[32],316 nM
O=C1C(Cl)=C(N2C(=O)CCC2=O)C(=O)c2ccccc21,IC50,[33],380 nM
Cc1[nH]c(/C=C2\C(=O)Nc3ccc(S(=O)(=O)N(C)c4cccc(Cl)c4)cc32)c(C)c1C(=O)N1CCN(C)CC1,IC50,[34],20 nM
CN(C)S(=O)(=O)c1ccc2c(c1)/C(=C/c1cc3c([nH]1)CCCC3)C(=O)N2,IC50,[35],130 nM
same,IC50,[36],688 µM
NC(=O)c1ccc2[nH]c(-c3ccc(Oc4ccc(Cl)cc4)cc3)nc2c1,EC50,[37],7.6 µM
CCOC(=O)c1c(C)[nH]c(/C=C2\C(=O)Nc3ccccc32)c1C,IC50,[38],> 100 µM
same,IC50,[39],> 100 µM
CN(C)CCCn1cc(C2=C(c3c[nH]c4ccccc34)C(=O)NC2=O)c2ccccc21 [GF-109203],IC50,[40],5.8 µM
CN(C)C[C@@H]1CCn2cc(c3ccccc32)C2=C(C(=O)NC2=O)c2cn(c3ccccc23)CCO1 [RUBOXISTAURIN],IC50,[41],1500 nM
same,Activity,[42],Active
CC[C@H](CO)Nc1nc(NCc2ccccc2)c2ncn(C(C)C)c2n1 [SELICICLIB],IC50,[43],25 µM
COc1cc2c(cc1OC)-c1n[nH]c(Nc3cccc(F)c3)c1C2,IC50,[44],3.1 µM
Nc1n[nH]c2nc3ccccc3nc12 [QUINOXALINE1],IC50,[45],> 10 µM
CN1CCc2[nH]c(=S)c(C#N)c(-c3cccs3)c2C1,IC50,[46],< 8 µM
same,IC50,[47],< 8 µM
same,IC50,[48],1200 nM
Cl.Cn1cc(C2=C(c3ccc4cc5n(c4c3)CCC(CN)C5)C(=O)NC2=O)c2ccccc21 (configuration not stated),IC50,[49],15 nM
same,IC50,[50],1300 nM
CCOc1ccc(/C=C2/SC(=O)N(CCN)C2=O)cc1 [HIAZOLIDINEDIONE1],Kd,[51],5 µM
same,IC50,[52],≤ 25 µM
